How the values were obtained:
Rho kinase 1 (ROCK1) = Rho kinase 1 (ROCK1) (Homo sapiens, UniProt Q13464); experiment: In vitro inhibitory activity assay ROCK1 (ADP-Glo); assay type: biochemical; details: ATP 200 μM, Cheng-Prusoff from IC50; read-out: ROCK 1 (Ki, range of activity)
Description: (§1) The effectiveness of compounds of the present invention to inhibit Rho kinase activity can be determined in a 10 μl assay containing 40 mM Tris pH7.5, 20 mM MgCl2 0.1 mg/mL BSA, 50 μM DTT and 2.5 μM peptide substrate (Myelin Basic Protein) using an ADP-Glo kit (Promega). Compounds were dissolved in DMSO such that the final concentration of DMSO was 1% in the assay. All reactions/incubations are performed at 25° C. Compound (2 ul) and either Rho kinase 1 or 2 (4 μl) were mixed and incubated for 30 mins. Reactions were initiated by addition of ATP (4μ1) such that the final concentration of ATP in the assay was 200 μM. After a 1 hour incubation 10 μl of ADP-Glo Reagent was added and after a further 1 hour incubation 20 ul of Kinase Detection Buffer was added and the mixture incubated for a further 45 minutes. The luminescent signal was measured on a luminometer. […] Compounds were tested in dose-response format and the inhibition of kinase activity was calculated at each concentration of compound. To determine the IC50 (concentration of compound required to inhibit 50% of the enzyme activity) data were fit to a plot of % inhibition vs Log10 compound concentration using a sigmoidal fit with a variable slope and fixing the maximum to 100% and the minimum to 0%. To determine the Ki values the Cheng-Prusoff equation was utilized (Ki=IC50/(1+[S]/Km).

Rho kinase 2 (ROCK2) = Rho kinase 2 (ROCK2) (Homo sapiens, UniProt O75116); experiment: In vitro inhibitory activity assay ROCK2 (ADP-Glo); assay type: biochemical; details: ATP 200 μM, Cheng-Prusoff from IC50; read-out: ROCK2 (Ki, range of activity)
Rho kinase 2 (ROCK2), sequence (O75116 whole entry): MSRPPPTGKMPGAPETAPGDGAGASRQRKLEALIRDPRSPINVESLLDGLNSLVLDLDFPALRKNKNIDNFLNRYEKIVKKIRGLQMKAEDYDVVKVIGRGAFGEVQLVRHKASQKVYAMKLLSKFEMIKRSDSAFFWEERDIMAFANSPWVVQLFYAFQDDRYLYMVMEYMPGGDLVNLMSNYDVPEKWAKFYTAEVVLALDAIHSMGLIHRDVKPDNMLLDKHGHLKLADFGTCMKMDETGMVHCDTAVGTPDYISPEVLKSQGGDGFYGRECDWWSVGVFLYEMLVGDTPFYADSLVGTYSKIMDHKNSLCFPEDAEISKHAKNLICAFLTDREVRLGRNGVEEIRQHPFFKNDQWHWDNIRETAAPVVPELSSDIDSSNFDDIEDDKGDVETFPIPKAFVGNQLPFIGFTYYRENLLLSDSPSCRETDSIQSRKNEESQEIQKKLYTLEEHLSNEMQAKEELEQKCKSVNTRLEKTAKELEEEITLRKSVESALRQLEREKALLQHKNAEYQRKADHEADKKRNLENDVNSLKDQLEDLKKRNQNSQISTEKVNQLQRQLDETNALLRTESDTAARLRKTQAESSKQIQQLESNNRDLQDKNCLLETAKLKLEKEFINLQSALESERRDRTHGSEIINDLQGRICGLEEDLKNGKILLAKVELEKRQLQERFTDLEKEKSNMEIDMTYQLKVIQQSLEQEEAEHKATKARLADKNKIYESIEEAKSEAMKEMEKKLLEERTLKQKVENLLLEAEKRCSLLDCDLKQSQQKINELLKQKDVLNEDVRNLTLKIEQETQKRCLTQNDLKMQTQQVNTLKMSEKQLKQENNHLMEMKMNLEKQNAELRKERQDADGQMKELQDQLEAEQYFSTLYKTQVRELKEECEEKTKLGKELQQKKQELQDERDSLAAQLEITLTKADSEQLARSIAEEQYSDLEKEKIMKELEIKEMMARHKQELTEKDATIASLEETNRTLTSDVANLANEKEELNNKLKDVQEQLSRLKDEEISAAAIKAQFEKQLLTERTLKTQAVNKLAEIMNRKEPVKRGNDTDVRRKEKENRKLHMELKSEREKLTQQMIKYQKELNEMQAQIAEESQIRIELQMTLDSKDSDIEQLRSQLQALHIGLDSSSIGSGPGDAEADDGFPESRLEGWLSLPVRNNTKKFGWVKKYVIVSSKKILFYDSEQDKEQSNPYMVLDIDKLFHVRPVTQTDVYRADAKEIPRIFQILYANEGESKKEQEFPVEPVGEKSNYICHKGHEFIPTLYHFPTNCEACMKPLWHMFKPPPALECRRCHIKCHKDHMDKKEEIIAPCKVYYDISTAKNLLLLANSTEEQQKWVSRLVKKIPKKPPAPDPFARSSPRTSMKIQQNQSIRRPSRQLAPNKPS
Description: as §1

PKA = PKA (Homo sapiens, UniProt P17612); experiment: In vitro inhibitory activity assay for PKA (ADP-Glo), reported as selectivity ratio vs ROCK2; assay type: biochemical; details: Ki value for PKA divided by Ki value of ROCK2
Description: The effectiveness of compounds of the present invention to inhibit PKA activity can be determined in a 10 μl assay containing 40 mM Tris pH7.5, 20 mM MgCl2 0.1 mg/ml BSA, 50 μM DTT and 260 μM peptide substrate (kemptide) using an ADP-Glo kit (Promega). Compounds were dissolved in DMSO such that the final concentration of DMSO was 1% in the assay. All reactions/incubations are performed at 25° C. Compound and PKA enzyme (6 μl) were mixed and incubated for 30 mins. Reactions were initiated by addition of ATP (4 μl ) such that the final concentration of ATP in the assay was 10 μM. After a 30 minute incubation 10 μl of ADP-Glo Reagent was added and after a further 1 hour incubation 20 μl of Kinase Detection Buffer was added and the mixture incubated for a further 45 minutes. The luminescent signal was measured on a luminometer. […] Compounds were tested in dose-response format and the inhibition of kinase activity was calculated at each concentration of compound. To determine the IC50 (concentration of compound required to inhibit 50% of the enzyme activity) data were fit to a plot of % inhibition vs Logio compound concentration using a sigmoidal fit with a variable slope and fixing the maximum to 100% and the minimum to 0%. To determine the Ki values the Cheng-Prusoff equation was utilized (Ki=IC50/(1+[S]/Km).
In vitro inhibitory activities for PKA were reported as selectivity ratio vs. ROCK-2.

[1] = test system: cch-evoked bronchoconstriction; experiment: Experimental bronchospasm (carbachol-induced bronchoconstriction, Konzett & Roessler); assay type: in vivo, Male CD Sprague Dawley rats; details: for inhibition in vivo at 0.01 mg/kg: dose 10 μg/Kg intratracheal
Description: Male CD Sprague Dawley rats (220-250 g) were purchased from Charles River Laboratories Italy (Calco, Lecco). Prior to use animals were acclimated for at least 5 days 20 to the local vivarium conditions (room temperature: 20-24° C.; relative humidity: 40-70%), having free access to standard rat chow and softened tap water. All the procedures were performed in animal operating rooms according to ethical guidelines for the conduct of animal research (D. L.vo 116/92).
Rats were anaesthetized with a combination of anesthetics (Zoletil 20 mg/kg+Xylazine 5 mg/kg, ip) for the i.t. administration. A laryngoscope was moved forward into the mouth to visualize the trachea and guide the insertion of the tip of a custom-made small diameter cannula directly into the trachea and located 1-2 mm above the bifurcation.
In order to assess the residual inhibitory activity of test compounds 1 hour after their administration, rats were surgically prepared. Body temperature was kept constant at 37° C. by a heated blanket.
The trachea was cannulated and the lungs were ventilated artificially with a constant volume ventilator (rodent ventilator mod. 7025, Ugo Basile, Comerio, Varese, Italy) at a frequency of 80 strokes/min and at a tidal volume of 10 ml/kg. To avoid spontaneous breathing, the animals were injected intravenously (i.v.) with pancuronium bromide (2 mg/kg).
Bronchoconstriction was induced by the i.v. injection of carbachol (cch) 80 μg/kg. In control experiments, repeated injections of this dose produced reproducible short-lasting (1-2 min duration) bronchospasms. Bronchoconstriction, quantified as a reduction of tidal volume, was evaluated according to the method described by Konzett & Roessler (1). Systemic blood pressure and changes in airway resistance were monitored with a digital pressure transducer.
After stabilisation of artificial breathing and blood pressure, animals were injected (i.v.) with cch every 3 min, until 3 stable and reproducible basal responses were obtained. […] The effect of test compounds was 15 expressed as % inhibition of cch-evoked bronchoconstriction in time-matched, vehicle-treated, animals (controls).
Tested compounds were dissolved in dH2O and 1% Tween-80 or 0,001% HCl and further diluted to target concentrations. Tested compounds were instilled locally into the trachea in a volume of 125 μl.
All data are presented as mean±s.e.mean. The % inhibition of experimental bronchospasm was calculated comparing the drug-treated with the vehicle-treated control animals. Data analysis was performed using GraphPad Prism software.

[2] = iv, rat, 1 hour after administration, carbachol 80 μg/kg i.v., read-out: Inhibition % (±s.e. mean) of cch-evoked bronchoconstriction

Rho kinase 1 (ROCK1), sequence (Q13464 whole entry): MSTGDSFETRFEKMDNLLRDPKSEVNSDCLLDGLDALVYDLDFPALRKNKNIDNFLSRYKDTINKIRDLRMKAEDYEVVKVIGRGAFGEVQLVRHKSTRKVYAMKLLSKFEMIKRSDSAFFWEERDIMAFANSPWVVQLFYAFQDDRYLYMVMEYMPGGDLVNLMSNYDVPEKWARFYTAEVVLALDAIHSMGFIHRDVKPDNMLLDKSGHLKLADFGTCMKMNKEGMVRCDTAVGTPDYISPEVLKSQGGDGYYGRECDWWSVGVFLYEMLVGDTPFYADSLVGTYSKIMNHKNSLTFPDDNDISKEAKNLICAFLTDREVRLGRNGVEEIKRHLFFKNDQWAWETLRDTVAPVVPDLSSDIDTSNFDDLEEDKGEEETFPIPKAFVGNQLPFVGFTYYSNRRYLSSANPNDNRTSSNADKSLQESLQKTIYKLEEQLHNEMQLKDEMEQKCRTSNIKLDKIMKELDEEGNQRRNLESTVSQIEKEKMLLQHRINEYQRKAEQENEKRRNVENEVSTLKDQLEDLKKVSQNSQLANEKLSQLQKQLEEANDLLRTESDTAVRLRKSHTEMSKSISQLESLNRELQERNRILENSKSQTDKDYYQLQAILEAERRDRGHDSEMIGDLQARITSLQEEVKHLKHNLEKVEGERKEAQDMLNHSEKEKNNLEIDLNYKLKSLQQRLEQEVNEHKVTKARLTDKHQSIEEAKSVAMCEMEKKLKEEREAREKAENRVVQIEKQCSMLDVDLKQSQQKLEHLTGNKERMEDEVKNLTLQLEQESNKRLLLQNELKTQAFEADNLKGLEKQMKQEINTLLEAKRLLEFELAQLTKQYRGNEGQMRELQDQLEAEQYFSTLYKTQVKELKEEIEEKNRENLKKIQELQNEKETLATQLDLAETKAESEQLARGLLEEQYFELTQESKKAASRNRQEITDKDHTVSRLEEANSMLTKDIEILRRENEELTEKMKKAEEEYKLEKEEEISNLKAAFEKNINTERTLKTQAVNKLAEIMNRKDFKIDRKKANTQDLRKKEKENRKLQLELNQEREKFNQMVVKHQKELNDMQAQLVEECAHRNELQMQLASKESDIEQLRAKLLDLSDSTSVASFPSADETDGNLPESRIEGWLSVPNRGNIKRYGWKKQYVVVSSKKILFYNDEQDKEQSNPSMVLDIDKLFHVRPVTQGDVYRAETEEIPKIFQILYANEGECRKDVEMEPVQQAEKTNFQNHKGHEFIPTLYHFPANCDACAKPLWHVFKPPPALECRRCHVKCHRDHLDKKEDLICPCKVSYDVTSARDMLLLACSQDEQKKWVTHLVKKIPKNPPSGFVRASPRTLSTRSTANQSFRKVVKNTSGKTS

Row | Ki (Rho kinase 1 (ROCK1)) [nM] | Ki (Rho kinase 2 (ROCK2)) [nM] | Ratio (PKA/ROCK2) (PKA) | Structure (SMILES) | inhibition in vivo at 0.01 mg/kg [1, 2] [%] | inhibition in vivo at 0.003 mg/kg ([1]; iv, rat, dose 3 μg/Kg intratracheal, 1 hour after administration, carbachol 80 μg/kg i.v., read-out: Inhibition % (±s.e. mean) of cch-evoked bronchoconstriction) [%] | activity as bronchodilator (in words) ([1]; rat bronchospasm test, internal comparator vs compounds with bulky moiety W)
1 | ≤ 3 | ≤ 3 | *** (ratio≥10) | CN1CCN(C)C(COc2ccc(NC(=O)c3cccc(CNc4ncc(-c5ccnc(N)n5)c5c4CCO5)c3)nc2)C1 (single isomer, unassigned) [Example 82, 3-(((7-(2-aminopyrimidin-4-yl)-2,3-dihydrofuro[3,2-c]pyridin-4-yl)amino)methyl)-N-(5-((1,4-dimethylpiperazin-2-yl)methoxy)pyridin-2-yl)benzamide] | 69.7 ± 3.4 |  | 
2 | ≤ 3 | ≤ 3 | *** (ratio≥10) | CN1CCN(C)C(COc2ccc(NC(=O)c3cccc(CNc4ncc(-c5ccnc(N)n5)c5c4CCO5)c3)nc2)C1 (single isomer, unassigned) [Example 83, 3-(((7-(2-aminopyrimidin-4-yl)-2,3-dihydrofuro[3,2-c]pyridin-4-yl)amino)methyl)-N-(5-((1,4-dimethylpiperazin-2-yl)methoxy)pyridin-2-yl)benzamide] |  | 53.3 ± 4.6 | 
3 | ≤ 3 | ≤ 3 | ** (5≤ratio<10) | CN1C[C@@H]2C[C@H]1CN2c1ccc(NC(=O)c2cccc(CNc3ncc(-c4ccnc(N)n4)c4c3CCO4)c2)nc1 [Example 76, 3-(((7-(2-aminopyrimidin-4-yl)-2,3-dihydrofuro[3,2-c]pyridin-4-yl)amino)methyl)-N-(5-((1S,4S)-5-methyl-2,5-diazabicyclo[2.2.1]heptan-2-yl)pyridin-2-yl)benzamide] |  |  | 
4 | ≤ 3 | ≤ 3 |  | CN1CC[C@@H]1COc1ccc(NC(=O)c2cccc(CNc3ncc(-c4ccnc(N)n4)c4c3CCO4)c2)nc1 [Example 81, (R)-3-(((7-(2-aminopyrimidin-4-yl)-2,3-dihydrofuro[3,2-c]pyridin-4-yl)amino)methyl)-N-(5-((1-methylazetidin-2-yl)methoxy)pyridin-2-yl)benzamide] | 81.3 ± 7.9 |  | 
5 | > 30 | > 30 | ** (5≤ratio<10) | CNC(=O)c1cccc(CNc2ncc(-c3ccncn3)c3c2CCO3)c1 [Example A, N-Methyl-3-(((7-(pyrimidin-4-yl)-2,3-dihydrofuro[3,2-c]pyridin-4-yl)amino)methyl)benzamide, reference compound] |  |  | 
6 | > 30 | > 30 | *** (ratio≥10) | CNC(=O)c1cccc(CNc2ncc(-c3ccnc(N)n3)c3c2OCC3)c1 [Example B, 3-(((4-(2-aminopyrimidin-4-yl)-2,3-dihydrofuro[2,3-c]pyridin-7-yl)amino)methyl)-N-methylbenzamide, reference compound] |  |  | 
7 | > 30 | 3 to 30 | * (ratio<5) | Nc1nccc(-c2cnc(NCc3ccccc3)c3c2OCC3)n1 [Example C, 7-(2-Aminopyrimidin-4-yl)-N-benzyl-2,3-dihydrofuro[3,2-c]pyridin-4-amine, reference compound] |  |  | 

Continued, compound first:

Row | Structure (SMILES) | Ki (Rho kinase 1 (ROCK1)) [nM] | Ki (Rho kinase 2 (ROCK2)) [nM] | Ratio (PKA/ROCK2) (PKA) | inhibition in vivo at 0.01 mg/kg [1, 2] [%] | inhibition in vivo at 0.003 mg/kg ([1]; iv, rat, dose 3 μg/Kg intratracheal, 1 hour after administration, carbachol 80 μg/kg i.v., read-out: Inhibition % (±s.e. mean) of cch-evoked bronchoconstriction) [%] | activity as bronchodilator (in words) ([1]; rat bronchospasm test, internal comparator vs compounds with bulky moiety W)
8 | COc1ccc(NC(=O)c2cccc(CNc3ncc(-c4ccnc(N)n4)c4c3CCO4)c2)nc1 [Example 51, 3-(((7-(2-Aminopyrimidin-4-yl)-2,3-dihydrofuro[3,2-c]pyridin-4-yl)amino)methyl)-N-(5-methoxypyridin-2-yl)benzamide] | ≤ 3 | ≤ 3 | *** (ratio≥10) | 3.1 ± 14.8 |  | markedly lower activity as bronchodilator
9 | CN(C)CCOc1ccc(NC(=O)c2cccc(CNc3ncc(-c4ccnc(N)n4)c4c3CCO4)c2)nc1 [Example 52, 3-(((7-(2-aminopyrimidin-4-yl)-2,3-dihydrofuro[3,2-c]pyridin-4-yl)amino)methyl)-N-(5-(2-(dimethylamino)ethoxy)pyridin-2-yl)benzamide] | ≤ 3 | ≤ 3 | *** (ratio≥10) | 51.5 ± 6.2 |  | 
10 | CN1CCC(C(=O)N2CCN(c3ccc(NC(=O)c4cccc(CNc5ncc(-c6ccnc(N)n6)c6c5CCO6)c4)nc3)CC2)CC1 [Example 65, 3-(((7-(2-aminopyrimidin-4-yl)-2,3-dihydrofuro[3,2-c]pyridin-4-yl)amino)methyl)-N-(5-(4-(1-methylpiperidine-4-carbonyl)piperazin-1-yl)pyridin-2-yl)benzamide] | ≤ 3 | ≤ 3 | *** (ratio≥10) |  |  | 
11 | C[C@@H]1CN[C@@H](C)CN1c1ccc(NC(=O)c2cccc(CNc3ncc(-c4ccnc(N)n4)c4c3CCO4)c2)nc1 [Example 67] | ≤ 3 | ≤ 3 | *** (ratio≥10) |  |  | 
12 | Nc1nccc(-c2cnc(NCc3cccc(C(=O)Nc4ccc(N5C[C@H]6C[C@@H]5CN6)cn4)c3)c3c2OCC3)n1 [Example 68, N-(5-((1R,4R)-2,5-diazabicyclo[2.2.1]heptan-2-yl)pyridin-2-yl)-3-(((7-(2-aminopyrimidin-4-yl)-2,3-dihydrofuro[3,2-c]pyridin-4-yl)amino)methyl)benzamide] | ≤ 3 | ≤ 3 | *** (ratio≥10) |  |  | 
13 | Nc1nccc(-c2cnc(NCc3cccc(C(=O)Nc4ccc(N5CCCNCC5)cn4)c3)c3c2OCC3)n1 [Example 72, N-(5-(1,4-diazepan-1-yl)pyridin-2-yl)-3-(((7-(2-aminopyrimidin-4-yl)-2,3-dihydrofuro[3,2-c]pyridin-4-yl)amino)methyl)benzamide] | ≤ 3 | ≤ 3 | *** (ratio≥10) |  |  | 
14 | CN(C)CCN(C)c1ccc(NC(=O)c2cccc(CNc3ncc(-c4ccnc(N)n4)c4c3CCO4)c2)nc1 [Example 75, 3-(((7-(2-aminopyrimidin-4-yl)-2,3-dihydrofuro[3,2-c]pyridin-4-yl)amino)methyl)-N-(5-((2-(dimethylamino)ethyl)(methyl)amino)pyridin-2-yl)benzamide] | ≤ 3 | ≤ 3 | *** (ratio≥10) |  |  | 

— patent US20240092791A1, “DIHYDROFUROPYRIDINE DERIVATIVES AS RHO-KINASE INHIBITORS” (CHIESI FARMACEUTICI S.P.A., priority 2020, published 2024)
